Laboratory results taken from patent publication US20250082656A1, “DOSAGE REGIMENS FOR TREATMENT OF DENGUE INFECTION” (Atea Pharmaceuticals, Inc., priority 2022, published 2025).

Key:
[1] = Multiple-dose tolerability and steady state exposure, mice; assay type: in vivo, CD-1 mice
Method: There were no adverse clinical signs observed in the mice so the multiple doses of the prodrug were well-tolerated.
Separately, two mouse studies with multiple dosing were conducted. First, 9 naïve CD-1 mice were administered Compound 1 (AT-281) in 100 mM citrate buffer, pH 4.5 by oral gavage at 500 mg/kg for the first dose and, 4 h later, 250 mg/kg for the second dose. Blood samples were collected, 3 animals per time point, at 4 (before the second dosing), 8 and 16 h post the first dose, and PBMCs isolated. Secondly, 9 naïve CD-1 mice were administered Compound 1 (AT-281) by oral gavage at 1000 mg/kg for the first dose, and then 4 h later, they were given twice daily doses 12 hours apart for 3 consecutive days at 500 mg/kg. Blood samples were collected, 3 animals per time point, at 16 (received one 500 mg/kg dose), 40 (received three 500 mg/kg doses) and 76 h post first dose (received six 500 mg/kg doses), and PBMCs were isolated.
(§1) Pharmacokinetic measurements for FIGS. 11, 12, 13, 14, and 15 were analyzed using LC-MS/MS according to the protocol described herein. Plasma samples were prepared for MS analysis by adding internal standards and extracting with 20 volumes chilled ACN. After vortex (800 rpm for 10 min) and centrifugation (4,000 rpm, 15 min, 4° C.), the supernatants (25 μL) were diluted with an equal volume of H2O, mixed and spun again. After adding internal standards, the PBMC samples (10^6 cells) were lyzed with 300 μL MeOH/H2O (70:30, v/v) and 40 mM dibutylammonium acetate (DBAA), mixed by vortex and centrifuged (12,000 rpm, 15 min, 4° C.). Aliquots of the supernatants (35 μL) were dried under nitrogen and reconstituted in H2O, then mixed and spun again. […] A binary nonlinear gradient with mobile phases A (0.1% formic acid in water) and B (0.1% formic acid in ACN) were used to elute samples at 0.8 mL/min, with a run time of 5 min. […] A binary nonlinear gradient with mobile phases A (0.001% NHr H2O, 0.18 mM DBAA in H2O) and B (10 mM N,N-dimethyl-hexylamine, 3 mM NH4OAc in ACN/H2O (50.50, v/v)) were used to elute samples at 0.5 mL/min, with a run time of 3 min. Standards in 50% MeOH were used for calibration. […] Internal standards (ISS) as described previously (Good et al., Preclinical evaluation of AT-527, a novel guanosine nucleotide prodrug with potent, pan-genotypic activity against hepatitis C virus. PLos One 15:e02271045) were used to correct for variations in recovery.

[2] = Plasma PK after single oral dose of AT-752, rats; assay type: in vivo, SD rats; conditions: Rat, single oral AT-752 300 mg/kg
Method: (§2) Male SD rats were administered 300 mg/kg Compound 2 (AT-752). Blood samples were collected up to 24 hrs. post dose, plasma separated and analyzed for Compound 1 (AT-281), Compound 3 (AT-551), and Compound 6 (AT-273) by LC-MS/MS. Data are express as mean+/−SD (n=3-5/time point). The x-axis is time post the dose measured in hours and the y-axis is the plasma concentration of the metabolites measured in nanomoles/mL). The experimental procedure is provided in Example 14.
Male naïve SD rats (Beijing Vital River Laboratory Animals Co. Ltd., China) were administered a dose of AT-752 at 300 mg/kg in 40% PEG400, 10% solutol HS15, 50% 100 mM citrate buffer, pH 4.5 (v/v) by oral gavage. Blood samples (n=4) were collected at 1, 2, 4, 8, 12 and 24 h post-dose, plasma separated and stored at −70° C. […] For PBMCs, nine male naïve SD rats were administered a dose of Compound 2 (AT-752) (at a Compound 1 (AT-281) equivalent dose of 300 mg/kg) by oral gavage.
as §1
(§3) Data analysis of the pharmacokinetic data generated according to Example 21 and presented in FIGS. 11, 12, 13, 14, and 15 was analyzed according to the procedure described herein. Plasma concentrations of Compound 1 (AT-281), Compound 3 (AT-551) and Compound 6 (AT-273) were subjected to non-compartmental pharmacokinetic analysis using Phoenix WinNonlin software (version 6.3 or above, Pharsight, Mountain View, CA). The linear/log trapezoidal rule was applied in obtaining the PK parameters.

[3] = Plasma PK after single oral dose of AT-752, monkeys; assay type: in vivo, cynomolgus monkeys; conditions: Monkey, single oral AT-752 300 mg/kg
Method: as §2, with “cynomolgus monkeys” for “SD rats”
Male non-naïve cynomolgus monkeys (Hainan Jingang Laboratory Animal Co. Ltd., China), at least 2 kg body weight, were individually housed during the study in stainless steel mesh cages, provided ad libitum access to RO water, fed twice daily (except on the day of dosing when they were fed once) with ˜60 g Certified Monkey Diet each feed (Beijing Vital Keao Feed Co., Ltd., Beijing, China) and given daily treats of fresh fruit. They (n=5) were administered a dose of Compound 2 (AT-752) at 300 mg/kg in 40% PEG400, 10% solutol HS15, 50% 100 mM citrate buffer, pH 4.5 (v/v) by oral gavage, and blood samples (˜0.5 mL) were collected at 1, 2, 4, 8, 12 and 24 h post dose. Plasma was separated at each time point for pharmacokinetics, and stored at −70° C. […] Separately, three monkeys were given an oral dose of Compound 2 (AT-752) as powder in capsules at 60 mg/kg ([…] (AT-281) equivalent dose of 55 mg/kg), and blood samples collected at 12, 24 and 48 h post dose.
as §1, §3

[4] = 1000 mg/kg loading then 500 mg/kg twice a day for 3 days, 12 h after the sixth 500 mg/kg dose
[5] = 1000 mg/kg loading then 500 mg/kg twice a day, 12 h after the first 500 mg/kg dose

| SMILES | plasma concentration [1, 4] | plasma concentration [1, 5] | AUC0-24 h ([2]; plasma) | Cmax ([2]; plasma) | Tmax ([2]; plasma) | AUC0-24 h ([3]; plasma) | Cmax ([3]; plasma) | concentration of AT-9010 in pooled PBMCs [1, 4] | concentration of AT-9010 in pooled PBMCs [1, 5] | tolerability of multiple doses (adverse clinical signs) ([1]; 1000 mg/kg loading then 500 mg/kg twice a day for 3 days) | plasma concentration at 1 h, the earliest time point measured [2] | time present in plasma [3] | Tmax ([3]; plasma) |
| --- | --- | --- | --- | --- | --- | --- | --- | --- | --- | --- | --- | --- | --- |
| C[C@@]1(F)[C@H](O)[C@@H](CO)O[C@H]1n1cnc2c(=O)[nH]c(N)nc21 [Compound 6, 2′-fluoro-2′-C-methylguanosine] | 1350 ± 860 nM | 670 ± 120 nM | 22.9 µM·h | 1300 ± 300 nM | 8.0 ± 0.0 h | 7.8 ± 2.4 µM·h | 800 ± 200 nM | – | – | – | – | – | – |
| C[C@@]1(F)[C@H](O)[C@@H](COP(=O)(O)OP(=O)(O)OP(=O)(O)O)O[C@H]1n1cnc2c(=O)[nH]c(N)nc21 [Compound 5] | – | – | – | – | – | – | – | 0.575 pmol/10^6 cells | 0.421 pmol/10^6 cells | – | – | – | – |
| CNc1nc(N)nc2c1ncn2[C@@H]1O[C@H](CO[P@](=O)(N[C@@H](C)C(=O)OC(C)C)Oc2ccccc2)[C@@H](O)[C@@]1(C)F [Compound 1, isopropyl ((R)-(((2R,3R,4R,5R)-5-(2-amino-6-(methylamino)-9H-purin-9-yl)-4-fluoro-3-hydroxy-4-methyltetrahydrofuran-2-yl)methoxy)(phenoxy)phosphoryl)-L-alaninate] | – | – | – | – | – | 9.5 ± 3.7 µM·h | 3700 ± 1500 nM | – | – | well-tolerated | below the limit of quantitation | more than 4 h | 1 h |
